Patent US9682940B2, “Indazole derivatives useful as CB-1 inverse agonists” (Janssen Pharmaceutica NV, priority 2015, dated 2017)

How the values were obtained:
[1] = biological target: Human CB2R (Cannabanoid receptor 2) (Homo sapiens (Human), UniProt P34972); assay: CB-2 in vitro cAMP (HTRF) assay in HEK-293 cells; format: cell-based; settings: HEK-293 cells stably transfected with human CB2R, 250 nM Forskolin, mean where tested more than once, read-out: CB-2 (HEK_cAMP) EC50
Description: (§1) CB1 and CB2 receptors are Gi-coupled GPCR. Activation of CB1 and CB2 receptors results in a decrease in cAMP production. An inverse agonist of the CB1 or CB2 receptor results in the opposite effect, an increase of cAMP production. The principle of this assay is based on HTRF® technology (Homogeneous Time-Resolved Fluorescence). The method is a competitive immunoassay between native cAMP produced by cells and the cAMP labeled with the fluorophore d2. The tracer binding is quantified by a Mab anti-cAMP labeled with Eu3+TBP-NHS Cryptate (supplied as part of the assay kit). The specific signal (i.e. energy transfer) is inversely proportional to the concentration of cAMP in the standard or sample.
(§2) Human CB1R (Cannabanoid receptor 1) was stably transfected in HEK-293 cells (DiscoveRx, cat: 93-0200C1). Human CB2R (Cannabanoid receptor 2) was stably transfected in HEK-293 cells (DiscoveRx, cat: 93-0201C1). Cell cultures were maintained in media: DMEM (Invitrogen Cat#12430-054) supplemented with 10% HI FBS (Invitrogen Cat#16140-071), 1% L-glutamine (Invitrogen Cat#25030-081), 0.2 mg/ml Hygromycin B (Invitrogen Cat#10687-010), 600 μg/mL G418 (Invitrogen Cat#10131-035), and 1× Penn/Strep (Invitrogen 15140-122). After cell expansion, aliquots were cryo-stored in media containing 5% DMSO (Pierce Cat#20684).
(§3) One day prior to experiments media was warmed to 37° C. and the cryo-stored cells were thawed in a 37° C. water bath. The cells were then added to media (10× volume) and the mixture was centrifugated at 1000 RPM for 5 min. The supernate was removed and the cells were re-suspended in media. A sample of the cell suspension was evaluated on a Cedex XS automated cell counter (Innovatis Systems) to determine viable cells/ml. Additional media was added to the cells to achieve a final cell density of 4E5 cells/mL. The cells were then plated into 384 well PDL white solid bottom plates (Greiner, Cat#781945) at 20 μL per well using a Multidrop (Thermo Scientific). Cells were removed from Row P (location of cAMP standards). Two columns of cells were plated into a clear bottom 384 well PDL coated plate (Greiner, Cat#781944) to view confluence the day of the assay. The cell plates were lidded and stored for 15 minutes in a hood, then transferred to an incubator (37° C., 5% CO2, 95% humidity) overnight.
(§4) DMSO was added to all wells of 384 well V bottom polystyrene plate (Greiner, Cat#781280) except to columns 1 and 13, rows O and P and wells M13-M23 and N13-N23. Test compounds (60 μL, 10 mM) were added to Column 1 and 13 (A1 through N1 and A13 through L13). Test compounds were serially diluted 1/3 by transferring and mixing 20 μl sample with 40 μL DMSO.
(§5) DMSO (40 μL) was added to wells of 384 well V bottom polystyrene plate: O2 through O11, M14 through M23, N14 through N23, and O14 through 023. AM630 (also known as [6-iodo-2-methyl-1-[2-(4-morpholinyl)ethyl]-1H-indol-3-yl](4-methoxyphenyl)-methanone, Cayman Chemical, Cat#10006974) (60 μL, 10 mM) was added to 01; and 1-(2,4-dichlorophenyl)-7-[(4-fluorophenyl)methylene]-4,5,6,7-tetrahydro-N-1-piperidinyl-1H-indazole-3-carboxamide (60 μL, 10 mM) was added to N13. The control was serially diluted 1/3 by transferring and mixing 20 μl sample with 40 μL DMSO. This process resulted 11 doses per control, 10 mM to […].
(§6) Cells plated the day prior to the assay in clear bottom plates were viewed on an inverse microscope to ensure confluency in the range of 60-75%. […]

[2] = biological target: Human CB1R (Cannabanoid receptor 1) (Homo sapiens (Human), UniProt P21554); assay: CB-1 in vitro cAMP (HTRF) assay in HEK-293 cells; format: cell-based; settings: HEK-293 cells stably transfected with human CB1R, 250 nM Forskolin, mean where tested more than once, read-out: CB-1 (HEK_cAMP) EC50
Description: as §1, §2, §3, §4, §5, §6

Chain of Human CB2R (Cannabanoid receptor 2) (P34972 whole entry): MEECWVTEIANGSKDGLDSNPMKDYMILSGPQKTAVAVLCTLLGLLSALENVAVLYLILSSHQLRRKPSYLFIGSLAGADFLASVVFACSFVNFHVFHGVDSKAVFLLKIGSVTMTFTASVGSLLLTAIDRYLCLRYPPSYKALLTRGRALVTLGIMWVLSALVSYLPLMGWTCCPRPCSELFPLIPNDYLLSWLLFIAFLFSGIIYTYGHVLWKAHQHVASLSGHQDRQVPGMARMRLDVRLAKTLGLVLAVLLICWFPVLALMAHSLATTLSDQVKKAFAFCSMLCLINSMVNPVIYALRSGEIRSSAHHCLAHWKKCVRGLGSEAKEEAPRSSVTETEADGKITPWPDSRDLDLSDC
Chain of Human CB1R (Cannabanoid receptor 1) (P21554 whole entry): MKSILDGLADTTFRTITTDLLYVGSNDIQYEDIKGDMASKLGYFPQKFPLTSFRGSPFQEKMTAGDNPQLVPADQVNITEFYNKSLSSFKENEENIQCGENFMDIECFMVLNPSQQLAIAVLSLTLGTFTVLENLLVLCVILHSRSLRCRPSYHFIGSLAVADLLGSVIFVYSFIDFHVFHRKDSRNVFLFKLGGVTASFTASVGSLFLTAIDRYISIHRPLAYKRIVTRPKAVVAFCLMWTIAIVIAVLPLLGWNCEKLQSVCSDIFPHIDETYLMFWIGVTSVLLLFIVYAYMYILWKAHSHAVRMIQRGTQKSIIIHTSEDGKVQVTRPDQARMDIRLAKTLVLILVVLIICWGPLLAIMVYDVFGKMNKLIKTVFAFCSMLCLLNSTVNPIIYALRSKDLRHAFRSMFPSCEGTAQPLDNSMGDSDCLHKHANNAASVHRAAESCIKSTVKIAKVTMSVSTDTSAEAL

EC50 [1] | EC50 [2] | Compound
> 10000 nM | 845 nM | Cn1nc(C2CCN(S(=O)(=O)c3ccc(C(=O)O)cc3)CC2)c2cc(C(c3ccc(Cl)cc3)c3ccc(Cl)cc3)ccc21 [Compound 62]
> 10000 nM | 66 nM | Cn1nc(C2CCN(S(=O)(=O)c3cccc(C(=O)O)c3)CC2)c2cc(C(c3ccc(Cl)cc3)c3ccc(Cl)cc3)ccc21 [Compound 63]
> 10000 nM | 24 nM | Cn1nc(C2CCN(S(=O)(=O)c3ccc(C(N)=O)cc3)CC2)c2cc(C(c3ccc(Cl)cc3)c3ccc(Cl)cc3)ccc21 [Compound 64]
> 10000 nM | 25 nM | NC(=O)c1cccc(S(=O)(=O)N2CCC(c3n[nH]c4ccc(C(c5ccc(Cl)cc5)c5ccc(Cl)cc5)cc34)CC2)c1 [Compound 65]
> 10000 nM | 160 nM | NC(=O)c1cccc(S(=O)(=O)N2CCC(c3n[nH]c4ccc(C(c5ccc(Cl)cc5)c5ccc(Cl)cc5)cc34)CC2)c1 [Compound 66]
5200 nM | 2 nM | COc1ccc(C(c2ccc(OC)cc2)c2ccc3[nH]nc(C4CCN(S(=O)(=O)C(F)(F)F)CC4)c3c2)cc1 [Compound 67]
> 10000 nM | 85 nM | O=C(O)c1cccc(S(=O)(=O)N2CCC(c3nn(CCO)c4ccc(C(c5ccc(Cl)cc5)c5ccc(Cl)cc5)cc34)CC2)c1 [Compound 68]
> 10000 nM | 26 nM | NC(=O)c1ccc(S(=O)(=O)N2CCC(c3nn(CCO)c4ccc(C(c5ccc(Cl)cc5)c5ccc(Cl)cc5)cc34)CC2)cc1 [Compound 69]
> 10000 nM | 428 nM | NC(=O)c1ccccc1S(=O)(=O)N1CCC(c2nn(CCO)c3ccc(C(c4ccc(Cl)cc4)c4ccc(Cl)cc4)cc23)CC1 [Compound 70]
> 10000 nM | 68 nM | NS(=O)(=O)c1cccc(C(=O)N2CCC(c3nn(CCO)c4ccc(C(c5ccc(Cl)cc5)c5ccc(Cl)cc5)cc34)CC2)c1 [Compound 71]
> 10000 nM | 39 nM | NS(=O)(=O)c1ccc(C(=O)N2CCC(c3nn(CCO)c4ccc(C(c5ccc(Cl)cc5)c5ccc(Cl)cc5)cc34)CC2)cc1 [Compound 72]
> 10000 nM | 762 nM | O=C(O)Cn1nc(C2CCN(S(=O)(=O)C(F)(F)F)CC2)c2cc(C(c3ccc(Cl)cc3)c3ccc(Cl)cc3)ccc21 [Compound 73]
> 10000 nM | 162 nM | CC(C)(C)OC(=O)N1CCC(Nc2n[nH]c3ccc(C(c4ccc(Cl)cc4)c4ccc(Cl)cc4)cc23)CC1 [Compound 74]
> 10000 nM | 112 nM | CC(C)(C)OC(=O)N1CCC(c2nn(CCO)c3ccc(C(c4ccc(Cl)cc4)c4ccc(Cl)cc4)cc23)CC1 [Compound 76]
> 10000 nM | 60 nM | O=S(=O)(N1CCC(Nc2n[nH]c3ccc(C(c4ccc(Cl)cc4)c4ccc(Cl)cc4)cc23)CC1)C(F)(F)F [Compound 77]
> 10000 nM | 179 nM | CC(C)S(=O)(=O)N1CCC(Nc2n[nH]c3ccc(C(c4ccc(Cl)cc4)c4ccc(Cl)cc4)cc23)CC1 [Compound 78]
> 10000 nM | 14 nM | O=S(=O)(N1CCC(c2nn(CCO)c3ccc(C(c4ccc(Cl)cc4)c4ccc(Cl)cc4)cc23)CC1)C(F)(F)F [Compound 79]
> 10000 nM | 374 nM | O=C(O)c1ccc(S(=O)(=O)N2CCC(c3nn(CCO)c4ccc(C(c5ccc(Cl)cc5)c5ccc(Cl)cc5)cc34)CC2)cc1 [Compound 80]
> 10000 nM | 7320 nM | O=S(=O)(C(F)F)N1CCC(c2n[nH]c3ccc(C(c4ccc(Cl)cc4)c4ccc(Cl)cc4)cc23)CC1 [Compound 81]

EC50 [1] | EC50 [2] | Compound
> 10000 nM | 82 nM | NC(=O)c1cccc(S(=O)(=O)N2CCC(c3nn(CCO)c4ccc(C(c5ccc(Cl)cc5)c5ccc(Cl)cc5)cc34)CC2)c1 [Compound 82]
> 10000 nM | 1570 nM | O=C(O)CCS(=O)(=O)N1CCC(c2nn(CCO)c3ccc(C(c4ccc(Cl)cc4)c4ccc(Cl)cc4)cc23)CC1 [Compound 83]
> 10000 nM | 6740 nM | O=C(O)c1ccccc1S(=O)(=O)N1CCC(c2nn(C3CC3)c3ccc(C(c4ccc(Cl)cc4)c4ccc(Cl)cc4)cc23)CC1 [Compound 87]
> 10000 nM | 115 nM | O=C(O)c1cccc(S(=O)(=O)N2CCC(c3nn(C4CC4)c4ccc(C(c5ccc(Cl)cc5)c5ccc(Cl)cc5)cc34)CC2)c1 [Compound 88]
> 10000 nM | 339 nM | O=C(O)c1ccc(S(=O)(=O)N2CCC(c3nn(C4CC4)c4ccc(C(c5ccc(Cl)cc5)c5ccc(Cl)cc5)cc34)CC2)cc1 [Compound 89]
3100 nM | 716 nM | NC(=O)CC(=O)N1CCC(c2nn(C3CC3)c3ccc(C(c4ccc(Cl)cc4)c4ccc(Cl)cc4)cc23)CC1 [Compound 90]
> 10000 nM | 39 nM | O=C(CO)N1CCC(c2nn(C3CC3)c3ccc(C(c4ccc(Cl)cc4)c4ccc(Cl)cc4)cc23)CC1 [Compound 91]
> 10000 nM | 29 nM | NC(=O)CCC(=O)N1CCC(c2nn(C3CC3)c3ccc(C(c4ccc(Cl)cc4)c4ccc(Cl)cc4)cc23)CC1 [Compound 92]
> 10000 nM | 533 nM | NC(=O)c1ccccc1S(=O)(=O)N1CCC(c2nn(C3CC3)c3ccc(C(c4ccc(Cl)cc4)c4ccc(Cl)cc4)cc23)CC1 [Compound 93]
> 10000 nM | 65 nM | NC(=O)c1cccc(S(=O)(=O)N2CCC(c3nn(C4CC4)c4ccc(C(c5ccc(Cl)cc5)c5ccc(Cl)cc5)cc34)CC2)c1 [Compound 94]
6500 nM | 63 nM | NC(=O)c1ccc(S(=O)(=O)N2CCC(c3nn(C4CC4)c4ccc(C(c5ccc(Cl)cc5)c5ccc(Cl)cc5)cc34)CC2)cc1 [Compound 95]
> 10000 nM | 2240 nM | NC(=O)c1ccccc1C(=O)N1CCC(c2nn(C3CC3)c3ccc(C(c4ccc(Cl)cc4)c4ccc(Cl)cc4)cc23)CC1 [Compound 96]
> 10000 nM | 478 nM | O=C(O)c1cccc(C(=O)N2CCC(c3nn(C4CC4)c4ccc(C(c5ccc(Cl)cc5)c5ccc(Cl)cc5)cc34)CC2)c1 [Compound 97]
> 10000 nM | 64 nM | NC(=O)c1cccc(C(=O)N2CCC(c3nn(C4CC4)c4ccc(C(c5ccc(Cl)cc5)c5ccc(Cl)cc5)cc34)CC2)c1 [Compound 98]
> 10000 nM | 345 nM | O=C(O)c1ccc(C(=O)N2CCC(c3nn(C4CC4)c4ccc(C(c5ccc(Cl)cc5)c5ccc(Cl)cc5)cc34)CC2)cc1 [Compound 99]
> 10000 nM | 428 nM | COc1ccccc1S(=O)(=O)N1CCC(Nc2n[nH]c3ccc(C(c4ccc(Cl)cc4)c4ccc(Cl)cc4)cc23)CC1 [Compound 100]
> 10000 nM | 293 nM | COc1cccc(S(=O)(=O)N2CCC(Nc3n[nH]c4ccc(C(c5ccc(Cl)cc5)c5ccc(Cl)cc5)cc34)CC2)c1 [Compound 101]
> 10000 nM | 477 nM | O=C(O)CC(=O)N1CCC(c2nn(C3CC3)c3ccc(C(c4ccc(Cl)cc4)c4ccc(Cl)cc4)cc23)CC1 [Compound 102]
> 10000 nM | 6010 nM | O=C(O)c1ccccc1C(=O)N1CCC(c2nn(C3CC3)c3ccc(C(c4ccc(Cl)cc4)c4ccc(Cl)cc4)cc23)CC1 [Compound 103]

Compound | EC50 [1] | EC50 [2]
CCOC(=O)Cn1nc(C2CCN(S(=O)(=O)C(F)(F)F)CC2)c2cc(C(c3ccc(Cl)cc3)c3ccc(Cl)cc3)ccc21 [Compound 75] | > 10000 nM | 3920 nM
